One assay concerns Wolbachia iPGM. The experiment in a line: PGM activity, spectrophotometric NADH-coupled assay, recombinant Wolbachia iPGM. Format: biochemical. To be noted: recombinant enzyme. The protocol: (§1) The purified CeiPGM, WoliPGM and BmiPGM proteins described in Example 4 were assayed for PGM activity and found to be active. Activity was measured in forward and reverse directions using a standard spectrophotometric assay (White and Fothergill-Gilmore, European J. Biochem. 207:709-714 1992)) as outlined in FIG. 9. In the forward reaction (glycolytic), the conversion of 3-PG to 2-PG is measured, whereas in the reverse direction (gluconeogenic), the conversion of 2-PG to 3-PG is assayed. In both cases, PGM activity was determined indirectly by measuring the consumption of NADH, which is monitored at 340 nm. The amount of NADH being oxidized to NAD corresponds to the amount of enzyme product (2-PG in the forward direction or 3-PG in the reverse direction) yielded in the PGM reaction. Reactions were performed at 30° C. for 5 minutes with data collected at 10-second intervals using a Beckman DU 640 spectrophotometer. In the forward reaction, iPGM was added to 1 ml assay buffer (30 mM Tris-HCl pH 7.0, 5 mM MgSO4, 20 mM KCl, 0.15 mM NADH) containing 1 mM ADP, 10 mM 3-PGA (Sigma P8877, Sigma-Aldrich, St. Louis, Mo.), 2.5 U each of enolase (Sigma E6126, EC 4.2.1.11, Sigma-Aldrich, St. Louis, Mo.), pyruvate kinase (Sigma P7768, EC 2.7.1.40, Sigma-Aldrich, St. Louis, Mo.) and lactate dehydrogenase (Sigma L2518; EC 1.1.1.27, Sigma-Aldrich, St. Louis, Mo.). […]

The next assay deals with dPGM. The settings on record: cited from earlier work.
The next assay addresses T1, B. malayi iPGM (Brugia malayi, UniProt Q4VWF8).
T1 construct: The full-length iPGMs from C. elegans, B. malayi and Wolbachia were overexpressed in E. coli; His tag (C); made in house; host or cells: E. coli ER2566
The experiment in a line: PGM activity, spectrophotometric NADH-coupled assay, recombinant B. malayi iPGM. Format: biochemical. The settings on record: recombinant enzyme. The procedure:
as §1

A further assay addresses T2, C. elegans iPGM (Caenorhabditis elegans, UniProt G5EFZ1).
T2 construct: The full-length iPGMs from C. elegans, B. malayi and Wolbachia were overexpressed in E. coli; His tag (C); made in house; host or cells: E. coli ER2566
T2 sequence (G5EFZ1 1-521 isoform G5EFZ1-2): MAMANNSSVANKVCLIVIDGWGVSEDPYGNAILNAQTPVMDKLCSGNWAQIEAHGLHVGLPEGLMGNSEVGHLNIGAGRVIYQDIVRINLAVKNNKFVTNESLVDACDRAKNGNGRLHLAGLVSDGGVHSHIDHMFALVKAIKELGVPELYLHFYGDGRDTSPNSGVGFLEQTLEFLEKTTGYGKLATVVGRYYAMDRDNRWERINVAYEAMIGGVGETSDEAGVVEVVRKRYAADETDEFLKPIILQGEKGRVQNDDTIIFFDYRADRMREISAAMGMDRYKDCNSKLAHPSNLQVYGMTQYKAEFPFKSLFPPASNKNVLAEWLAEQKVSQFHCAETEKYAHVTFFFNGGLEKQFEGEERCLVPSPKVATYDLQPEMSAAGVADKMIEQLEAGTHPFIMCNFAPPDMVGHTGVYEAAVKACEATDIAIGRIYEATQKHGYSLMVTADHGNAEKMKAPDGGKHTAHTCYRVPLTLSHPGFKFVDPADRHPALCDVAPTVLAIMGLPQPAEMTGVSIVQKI
The experiment in a line: PGM activity, spectrophotometric NADH-coupled assay, recombinant C. elegans iPGM. Format: biochemical. To be noted: recombinant enzyme. The protocol: as §1

In another assay the test system is iPGM. To be noted: cited from earlier work.

T1 sequence (Q4VWF8 whole entry): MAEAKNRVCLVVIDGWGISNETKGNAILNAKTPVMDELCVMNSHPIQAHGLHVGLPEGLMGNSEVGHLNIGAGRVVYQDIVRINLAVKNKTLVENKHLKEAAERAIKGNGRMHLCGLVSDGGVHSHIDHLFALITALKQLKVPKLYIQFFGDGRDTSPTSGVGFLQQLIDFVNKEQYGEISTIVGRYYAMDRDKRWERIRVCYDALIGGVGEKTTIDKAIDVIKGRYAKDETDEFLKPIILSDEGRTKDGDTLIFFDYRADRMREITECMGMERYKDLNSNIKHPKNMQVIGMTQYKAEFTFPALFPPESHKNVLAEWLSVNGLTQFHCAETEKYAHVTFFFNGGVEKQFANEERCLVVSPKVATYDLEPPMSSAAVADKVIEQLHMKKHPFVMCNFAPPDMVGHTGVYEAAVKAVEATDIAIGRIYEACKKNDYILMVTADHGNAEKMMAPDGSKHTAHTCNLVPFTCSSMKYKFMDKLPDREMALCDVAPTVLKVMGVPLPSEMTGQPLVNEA

Take `[O]=[V]([O-])([O-])[O-]` [vanadate]: the “inhibition of PGM activity” value in the assay on Wolbachia iPGM, on B. malayi iPGM and at C. elegans iPGM was “not inhibited” each time. For the same compound, in the assay on dPGM, the “effect on dPGM activity” value is on record as “inhibited”. The “effect on iPGM activity” value in the assay on iPGM is reported as “insensitive”.

The values are drawn from patent US20060111848A1, “Identification and use of cofactor independent phosphoglycerate mutase as a drug target for pathogenic organisms and treatment of the same” (New England Biolabs, Inc., priority 2003, published 2006).
